Data reported in patent publication US12396461B2, “Functional peptides having antimicrobial activity against phytopathogenic microorganisms” (TOYOTA JIDOSHA KABUSHIKI KAISHA, priority 2019, dated 2025).
Several values for one entry are separate records, joined by “and”; a condition that tells them apart may be missing. Identical values can stand only once. Entries after “also recorded” stand apart in the source; their conditions may differ. Like-named read-outs stand apart in the source and are kept apart here. Where no end group is shown, it is not given here.

What was measured:
Botrytis cinerea [1] = assay type: cell-based; parameters: key to Plate antimicrobial activity test Botrytis cinerea, level: a case where hyphae extended to the entire well and no antimicrobial activity was found is defined as “level 0,”; a case where hyphae extended to less than a half of the well and thus the peptide inhibited the growth of the hyphae is defined as “level 1,”; a case where ungerminated spores were present and the peptide partially inhibited the germination is defined as “level 2,”; a case where all spores were ungerminated and the peptide completely inhibited the germination is defined as “level 3.”; conditions: for Plate antimicrobial activity test Botrytis cinerea, level: 25° C. for 1 day or 2 days, microscopic observation
[2] = test system: Colletotrichum destructivum; assay type: cell-based; parameters: key to Plate antimicrobial activity test Colletotrichum destructivum, level: a case where hyphae extended to the entire well and no antimicrobial activity was found is defined as “level 0,”; a case where hyphae extended to less than a half of the well and thus the peptide inhibited the growth of the hyphae is defined as “level 1,”; a case where ungerminated spores were present and the peptide partially inhibited the germination is defined as “level 2,”; a case where all spores were ungerminated and the peptide completely inhibited the germination is defined as “level 3.”; conditions: for Plate antimicrobial activity test Colletotrichum destructivum, level: 25° C. for 1 day or 2 days, microscopic observation
[3] = test system: Colletotrichum orbiculare; assay type: cell-based; parameters: key to Plate antimicrobial activity test Colletotrichum orbiculare, level: a case where hyphae extended to the entire well and no antimicrobial activity was found is defined as “level 0,”; a case where hyphae extended to less than a half of the well and thus the peptide inhibited the growth of the hyphae is defined as “level 1,”; a case where ungerminated spores were present and the peptide partially inhibited the germination is defined as “level 2,”; a case where all spores were ungerminated and the peptide completely inhibited the germination is defined as “level 3.”; conditions: for Plate antimicrobial activity test Colletotrichum orbiculare, level: 25° C. for 1 day or 2 days, microscopic observation
Fusarium oxysporum = assay type: cell-based; parameters: key to Plate antimicrobial activity test Fusarium oxysporum, level: a case where hyphae extended to the entire well and no antimicrobial activity was found is defined as “level 0,”; a case where hyphae extended to less than a half of the well and thus the peptide inhibited the growth of the hyphae is defined as “level 1,”; a case where ungerminated spores were present and the peptide partially inhibited the germination is defined as “level 2,”; a case where all spores were ungerminated and the peptide completely inhibited the germination is defined as “level 3.”
Pyricularia oryzae = assay type: cell-based; parameters: key to Plate antimicrobial activity test Pyricularia oryzae, level: a case where hyphae extended to the entire well and no antimicrobial activity was found is defined as “level 0,”; a case where hyphae extended to less than a half of the well and thus the peptide inhibited the growth of the hyphae is defined as “level 1,”; a case where ungerminated spores were present and the peptide partially inhibited the germination is defined as “level 2,”; a case where all spores were ungerminated and the peptide completely inhibited the germination is defined as “level 3.”; conditions: for Plate antimicrobial activity test Pyricularia oryzae, level: 25° C. for 1 day or 2 days, microscopic observation
Botrytis cinerea [4] = test: Botrytis cinerea leaf inoculation test (tomato leaf); assay type: in vivo; conditions: peptide 100 μM; tomato leaf, 25° C. for 2 days, lesions by visual inspection; symbols ◯/Δ/X not defined
Procedure: In the present example, a suspension comprising Botrytis cinerea and a peptide to be tested was dropped on a plant leaf, and lesions were then observed by visual inspection to evaluate the antimicrobial activity of the tested peptide. First, the pores of Botrytis cinerea were suspended in a potato dextrose broth (PDB) to result in a spore concentration of 5×10^5 spores/ml, so as to prepare a PDB suspension spore solution. Subsequently, a peptide to be tested (TsORF6-1) was added to the PDB suspension spore solution, so that the final concentration of the peptide to be tested became 0 μM, 1 μM, 10 μM or 100 μM. Thereafter, 10 μl each of the PDB suspension spore solution containing the peptide to be tested was dropped on the front side and the back side of the leaf of tomato (variety name: “Momotaro Fight”). In this condition, incubation was carried out at 25° C. for 2 days. Thereafter, the front and back sides of the leaf were observed by visual inspection.

[5] = test system: Colletotrichum destructivum; test: Colletotrichum destructivum leaf inoculation test (Chinese cabbage leaf); assay type: in vivo; conditions: 25° C. for 4 days; for lesion of Colletotrichum destructivum on Chinese cabbage leaf, result in words: FIG. 3; for Leaf inoculation test Chinese cabbage/Colletotrichum destructivum: lesions by visual inspection, symbols ◯/Δ/X not defined
Procedure: In the present example, a suspension comprising Colletotrichum destructivum and a peptide to be tested was dropped on a plant leaf, and lesions were then observed by visual inspection to evaluate the antimicrobial activity of the tested peptide. First, the pores of Colletotrichum destructivum were suspended in water to result in a spore concentration of 5×10^5 spores/ml, so as to prepare a water suspension of spores. Subsequently, a peptide to be tested (TsORF6-1) was added to the water suspension of spores, so that the final concentration of the peptide to be tested became 0 μM, 1 μM, 10 μM or 100 μM. Thereafter, 10 μl each of the water suspension of spores containing the peptide to be tested was dropped on the front side and the back side of the leaf of Chinese cabbage (variety name: “Kigokoro 85”). In this condition, incubation was carried out at 25° C. for 4 days. Thereafter, the front and back sides of the leaf were observed by visual inspection.

Ralstonia solanacearum = conditions: 100 μM
[6] = test system: Erwinia carotovora subsp. carotovora; conditions: 100 μM
[7] = test system: Xanthomonas oryzae pv. oryzae
[8] = test system: Pseudomonas syringae pv. tomato
[9] = (FIG. 1, Table 3), concentration not given

**Q.** How did the “germination of Botrytis cinerea, result in words” value (Botrytis cinerea [1]; [9]) turn out when MKVMIVVKTKVKNKKVAKMMVK [TsORF6-1] was run?
**A.** The value was “completely inhibited in terms of germination; also recorded: could inhibit germination”.

**Q.** What about the “Plate antimicrobial activity test Botrytis cinerea, level” value (Botrytis cinerea [1]; peptide 1 μM) of the same sequence?
**A.** Its value is 0.

**Q.** What about the “Plate antimicrobial activity test Botrytis cinerea, level” value (Botrytis cinerea [1]; peptide 10 μM) of the same sequence?
**A.** The value was 0.

**Q.** And the “Plate antimicrobial activity test Botrytis cinerea, level” value (Botrytis cinerea [1]; peptide 100 μM)?
**A.** Its value is 3.

**Q.** What about the “germination of Colletotrichum destructivum, result in words” value [2, 9] of the same sequence?
**A.** Its value is “completely inhibited in terms of germination; also recorded: could inhibit germination”.

**Q.** And the “Plate antimicrobial activity test Colletotrichum destructivum, level” value ([2]; peptide 1 μM)?
**A.** Its value is 0.

**Q.** What about the “Plate antimicrobial activity test Colletotrichum destructivum, level” value ([2]; peptide 10 μM) of the same sequence?
**A.** The value was 0.

**Q.** What about the “Plate antimicrobial activity test Colletotrichum destructivum, level” value ([2]; peptide 100 μM) of the same sequence?
**A.** The value was 3.

**Q.** What about the “germination of Colletotrichum orbiculare, result in words” value [3, 9] of the same sequence?
**A.** Its value is “completely inhibited in terms of germination; also recorded: could inhibit germination”.

**Q.** And the “Plate antimicrobial activity test Colletotrichum orbiculare, level” value ([3]; peptide 1 μM)?
**A.** The value was 0.

**Q.** What about the “Plate antimicrobial activity test Colletotrichum orbiculare, level” value ([3]; peptide 10 μM) of the same sequence?
**A.** The value was 0.

**Q.** And the “Plate antimicrobial activity test Colletotrichum orbiculare, level” value ([3]; peptide 100 μM)?
**A.** Its value is 2.

**Q.** What about the “Plate antimicrobial activity test Fusarium oxysporum, level” value (Fusarium oxysporum) of the same sequence?
**A.** The value was 2 and 0.

**Q.** What about the “germination of Fusarium oxysporum, result in words” value (Fusarium oxysporum) of the same sequence?
**A.** Its value is “completely inhibited in terms of germination; also recorded: could inhibit germination”.

**Q.** And the “germination of Pyricularia oryzae, result in words” value (Pyricularia oryzae; [9])?
**A.** Its value is “completely inhibited in terms of germination; also recorded: could inhibit germination”.

**Q.** And the “Plate antimicrobial activity test Pyricularia oryzae, level” value (Pyricularia oryzae; peptide 1 μM)?
**A.** The value was 0.

**Q.** And the “Plate antimicrobial activity test Pyricularia oryzae, level” value (Pyricularia oryzae; peptide 10 μM)?
**A.** The value was 0.

**Q.** And the “Plate antimicrobial activity test Pyricularia oryzae, level” value (Pyricularia oryzae; peptide 100 μM)?
**A.** The value was 2.

**Q.** What about the “Leaf inoculation test Tomato/Botrytis cinerea” value (Botrytis cinerea [4]) of the same sequence?
**A.** Its value is “◯”.

**Q.** What about the “lesion of Colletotrichum destructivum on Chinese cabbage leaf, result in words” value ([5]; water suspension of spores containing 10 μl peptide) of the same sequence?
**A.** Its value is “a lesion of Colletotrichum destructivum was not observed”.

**Q.** And the “lesion of Colletotrichum destructivum on Chinese cabbage leaf, result in words” value ([5]; water suspension of spores containing 100 μl peptide)?
**A.** The value was “a lesion of Colletotrichum destructivum was not observed”.

**Q.** What about the “Leaf inoculation test Chinese cabbage/Colletotrichum destructivum” value ([5]; peptide 10 μM) of the same sequence?
**A.** Its value is “◯”.

**Q.** And the “Leaf inoculation test Chinese cabbage/Colletotrichum destructivum” value ([5]; peptide 100 μM)?
**A.** Its value is “◯”.

**Q.** What about the “Inhibitory rate Ralstonia solanacearum” value (Ralstonia solanacearum; calculated from OD600 versus water added) of the same sequence?
**A.** Its value is −5.2%.

**Q.** And the “OD600 Ralstonia solanacearum” value (Ralstonia solanacearum; cultured at 28° C. a whole day and night)?
**A.** The value was 2.7.

**Q.** And the “Inhibitory rate Erwinia carotovora subsp. carotovora” value [6]?
**A.** Its value is −14.9%.

**Q.** What about the “OD600 Erwinia carotovora subsp. carotovora” value [6] of the same sequence?
**A.** Its value is 2.2.

**Q.** And the “Inhibitory rate Xanthomonas oryzae pv. oryzae” value ([7]; 100 μM, calculated from OD600 versus water added)?
**A.** Its value is 47.6%.

**Q.** What about the “OD600 Xanthomonas oryzae pv. oryzae” value ([7]; 100 μM, cultured at 28° C. a whole day and night) of the same sequence?
**A.** The value was 1.1.

**Q.** And the “growth of Xanthomonas oryzae pv. oryzae, result in words” value ([7]; Table 4)?
**A.** Its value is “could inhibit the growth”.

**Q.** And the “growth of Pseudomonas syringae pv. tomato, result in words” value [8]?
**A.** Its value is “could inhibit the growth”.

**Q.** And the “Inhibitory rate Pseudomonas syringae pv. tomato” value ([8]; 100 μM)?
**A.** The value was 90.6%.

**Q.** And the “OD600 Pseudomonas syringae pv. tomato” value ([8]; 100 μM)?
**A.** Its value is 0.2.
